# Measurements: US20240353394A1, “ASSAY METHODS FOR SCREENING INHIBITORS OF SICKLE CELL DISEASE, ß-THALASSEMIA, OR SICKLE CELL ß-THALASSEMIA, OR A PHENOTYPE THEREOF” (Alexion Pharmaceuticals, Inc., priority 2021, published 2024)
# Columns and labels:
# Assay type in all cases: cell-based, human
# [1] = test system: SS-RBCs; assay: Heme dose-dependent induction of iC3b deposition on SS-RBCs
# From the text: (§1) RBCs and serum from SCD patients homozygous for the mutation in the hemoglobin gene (SS) were obtained from BioIVT (cat HUMANRBCALSUZN and HMRBC-SCA respectively) and from Sanguine Biosciences (Study #24348). Gelatin Veronal Buffer (GVB) was obtained from Boston Bioproducts (cat. IBB-300X). Mg-EGTA (cat. B106), C8 depleted normal human serum (cat. A325) and normal human serum (cat. NHS) were obtained from Complement Technology. PBS was obtained from Corning, cat. 21-031-CV. Porcine heme (Sigma, cat. 51280) was used at various concentrations (50-800 uM) to amplify complement activation and induce deposition on human cells.
# (§2) All centrifugations were performed at 440×g for 5 min at 4° C. and supernatants aspirated with multi-channel pipets to avoid disturbing the loose RBC pellets.
# Patient SS-RBCs were washed three times in PBS, resuspended in GVB, 5 mM Mg-EGTA and re-distributed to sterile V-bottom 96 well plates at a concentration of 2×10^6 cells/well. […] Heme was used at 0, 100, 200, 400, and 800 μM. Following incubation for 20-30 minutes at 37° C. 5% CO2, PBS containing 10% EDTA (Corning, cat. 46-030-CI) was added to stop complement activation. RBCs were washed and stained with antibody to iC3b as detailed below.
# (§3) Cells were resuspended in 50 μL per well iC3b (Quidel, cat. A209) or C5b-9 antibody (Quidel, cat. A239) diluted to 4 μg/mL in PBS and incubated for 20-30 min at 4° C. (in some cases, staining for flow cytometry was performed in sheath fluid). Cells were washed twice with 150-200 μL PBS, resuspended in 50 μL goat anti-mouse IgG (H+L)-AF488 (Invitrogen cat. A11029) diluted to 4 μg/mL in PBS and incubated for 20-30 min at 4° C. In some experiments, goat anti-mouse IgG2b AF488 was used at 4 μg/mL (Invitrogen, cat. A21141). Cells were washed twice with 150-200 μL PBS and acquired on the LSR Fortessa for flow cytometric analysis.
# [2] = test system: monocytes in whole blood; assay: Heme-induced tissue factor expression on monocytes in whole blood, flow cytometry; conditions: hirudin whole blood; for Q2 % Parent TF+: CD14 monocytes, inhibitor 1 μM, heme 100 μM, 4 hrs 37° C., Table 5
# Protocol: Human whole blood was obtained internally from healthy donors according to Institutional Review Board protocol. Blood was drawn into custom hirudin blood draw tubes obtained from Haematologic Technologies (cat. SCAT-296-5/5, 500 ATU/mL). This anti-coagulant allows simultaneous activation of complement and coagulation (through but not beyond thrombin). Blood was aliquoted into facs tubes (0.2 mL per tube) and inhibitors added to 1 μM. Heme was added to 100 μM and the samples were incubated for 4 hrs at 37° C., 5% CO2, mixing approximately every 30 minutes. To stain for flow cytometry, 10 μL of TruStain FcX (Biolegend, cat. 422302) was added for a 5-10 minute incubation at RT (to block IgG receptors). Mouse anti-human CD14 PerCP Cy5.5 (BD Biosciences, cat. 550787) (5 μL per sample) and mouse anti-human tissue factor-PE (BD Biosciences, cat. 550312) were added (20 μL per sample) and the samples were mixed and incubated for 30 minutes at RT. To lyse RBCs, 3 mLs of 1× lysis buffer (BD Biosciences Cat. 555899) was added to each tube followed by vortexing and incubation for 20 min at RT. The samples were centrifuges at 340 g for 5 minutes and washed twice with PBS. Cell pellets were resuspended in 0.5 mL PBS and acquired on the LSR Fortessa for flow cytometric analysis. Monocytes were gated via CD14 triggering and data was expressed as percentage of CD14 monocytes positive for tissue factor (TF).
# [3] = test system: SS-RBCs; assay: Heme-induced complement (iC3b, C5b-9) deposition on SS-RBCs, flow cytometry; conditions: for Q2 % Parent iC3b+ / Q2 % Parent C5b-9+: 20% autologous serum, heme 400 μM, 20-30 min 37° C.; for Q2 % Parent iC3b+: Table 3, FIG. 2A; for Q2 % Parent C5b-9+: Table 3, FIG. 2B; for effect on heme-induced C3 deposition (opsonization) on SS-RBCs / effect on heme-induced C5b-9 (MAC) deposition on SS-RBCs: heme and autologous serum; for effect on heme-induced C3 deposition (opsonization) on SS-RBCs: FIG. 2A; for effect on heme-induced C5b-9 (MAC) deposition on SS-RBCs: FIG. 2B
# From the text: as §1, §2
# Patient SS-RBCs were washed two or three times in PBS. To induce complement deposition, RBCs were resuspended in GVB, 5 mM Mg-EGTA (assay buffer) at 5×10^7 cells/mL and 30 μL added to sterile V-96 wells. Autologous serum was added to 20% final concentration. Complement inhibitors were diluted in assay buffer at 5× working stock of 3.125 μM and 10 μL added to wells containing cells. Porcine heme was added to 400 μM and the cells incubated for 20-30 minutes at 37° C., 5% CO2. Complement activation was stopped by the addition of 150 μL/well PBS containing 10 mM EDTA. Cells were centrifuged and washed once with 200 μL PBS and stained for iC3b and C5b-9 deposition below.
# Flow cytometric Analysis of iC3b and C5b-9 Deposition on the Surface of SS-RBCs
# as §3
# [4] = test system: HMEC-1 cells; assay: Heme-induced complement (iC3b, C5b-9) deposition on HMEC-1 cells, flow cytometry; conditions: for Q2 % Parent iC3b+ / Q2 % Parent C5b-9+: HMEC-1, 20% normal human serum, 1 uM inhibitor, heme 400 μM, 20-30 min 37° C.; for Q2 % Parent iC3b+: Table 4, FIG. 4A; for Q2 % Parent C5b-9+: Table 4, FIG. 4B; for effect on heme-induced C3 deposition on endothelial cells / effect on heme-induced C5b-9 (MAC, TCC) deposition on endothelial cells: HMEC-1, heme and NHS; for effect on heme-induced C3 deposition on endothelial cells: FIG. 4A; for effect on heme-induced C5b-9 (MAC, TCC) deposition on endothelial cells: FIG. 4B
# Protocol: The endothelial cell line HMEC-1 was purchased from ATCC (CRL 3243) and expanded and banked at AcCellerate (Cat. CBA02, lot 92-190318FG01). This is a dermal microvascular endothelial cell line. Cells were used in experiments at passage <5.
# All centrifugation steps were performed for 5-7 min at 200-300 g at room temperature (RT). HMEC-1 cells were seeded into 6 well plates at 1.5×10^5 cells per well in medium (Endothelial cell growth medium MV2, Promocell, cat. 22022) and allowed to reach confluency (72 hrs). Normal human serum (Complement Technologies, cat. NHS) was spiked with 1 uM inhibitor, diluted to 20% using Live cell imaging solution (LCIS) (Invitrogen, cat A1429DJ) containing 5-10 mM MgEGTA and added to HMEC-1 cultures in place of the medium. Heme was added to 400 μM, mixed and incubated for 20-30 min at 37° C. Cells were rinsed twice with 2 mLs PBS (Corning, cat. 21-031-CV) and detached with PBS containing 10 mM EDTA (Corning, cat. 46-034-CI). Cells were centrifuged, pellets resuspended in 400 μL sheath fluid (BD Biosciences, cat. 342003) and transferred to V-bottom 96 well plates in duplicate. After centrifugation, pellets were resuspended in 50 μL per well sheath fluid containing either iC3b or C5b-9 antibody diluted to 4 μg/mL. Following several washes, the cells were incubated with 50 μL of goat anti mouse IgG (H+L) AF 488 diluted to 4 μg/mL in sheath fluid for 30 min at 4° C. Following several washes, cells were acquired on the LSR Fortessa for flow cytometry analysis.
# [5] = test system: whole blood; assay: IL-8 production in whole blood model of thromboinflammation; conditions: heme, FIG. 6
molecule,measurement,setting,value
C=CC1=C(C)c2cc3[n-]c(cc4[n-]c(cc5nc(cc1n2)C(C)=C5C=C)c(C)c4CCC(=O)O)c(CCC(=O)O)c3C.[Fe+2] [heme],Q2 % Parent iC3b+,"[1]; 100 uM heme, 20% SS-Serum",18.3%
same,Q2 % Parent iC3b+,"[1]; 100 uM heme, No Serum",2%
same,Q2 % Parent iC3b+,"[1]; 200 uM Heme, 20% SS-Serum",22.8%
same,Q2 % Parent iC3b+,"[1]; 200 uM Heme, No Serum",1.3%
same,Q2 % Parent iC3b+,"[1]; 400 uM heme, 20% SS-Serum",49.6%
same,Q2 % Parent iC3b+,"[1]; 400 uM heme, No Serum",1.1%
same,Q2 % Parent iC3b+,"[1]; 800 uM heme, 20% SS-Serum",69.7%
same,Q2 % Parent iC3b+,"[1]; 800 uM heme, No Serum",0.8%
same,induction of C3 deposition (opsonization) on SS-RBCs,"[1]; heme 100-800 μM, 20% autologous serum, FIG. 3",potent and dose dependent opsonization
"CC(=O)c1nn(CC(=O)N2[C@H](C(=O)Nc3nc(Br)ccc3C)C[C@@]3(C)C[C@@H]23)c2ccc(-c3cnc(C)nc3)cc12 [ALXN2050, vermincopan]",Q2 % Parent TF+,[2],1.4%
same,Q2 % Parent iC3b+,[3],3.5%
same,Q2 % Parent C5b-9+,[3],3.4%
same,Q2 % Parent iC3b+,[4],3.4%
same,Q2 % Parent C5b-9+,[4],3%
same,effect on heme-induced C3 deposition on endothelial cells,[4],block
same,"effect on heme-induced C5b-9 (MAC, TCC) deposition on endothelial cells",[4],block
"Crizanlizumab: antibody manufactured using the published sequence of Crizanlizumab, an anti-P-selectin antibody FDA approved for prevention of VOC in SCD (antibody, chains of the INN, looked up, V domains shown) VH: QVQLVQSGAEVKKPGASVKVSCKVSGYTFTSYDINWVRQAPGKGLEWMGWIYPGDGSIKYNEKFKGRVTMTVDKSTDTAYMELSSLRSEDTAVYYCARRGEYGNYEGAMDYWGQGTLVTVSS VL: DIQMTQSPSSLSASVGDRVTITCKASQSVDYDGHSYMNWYQQKPGKAPKLLIYAASNLESGVPSRFSGSGSGTDFTLTISSLQPEDFATYYCQQSDENPLTFGGGTKVEIK",Q2 % Parent TF+,[2],23.2%
same,effect on heme-induced TF upregulation by monocytes,"[2]; heme, FIG. 5A, FIG. 5B",no effect
same,Q2 % Parent iC3b+,[3],38.6%
same,Q2 % Parent C5b-9+,[3],7.3%
same,effect on heme-induced C3 deposition (opsonization) on SS-RBCs,[3],little to no effect
same,effect on heme-induced C3 deposition (opsonization) on SS-RBCs,[3]; listed as anti-P-selectin antibody,no effect
same,effect on heme-induced C5b-9 (MAC) deposition on SS-RBCs,[3],little to no effect
same,effect on heme-induced C5b-9 (MAC) deposition on SS-RBCs,[3]; listed as anti-P selectin antibody,no effect
same,Q2 % Parent iC3b+,[4],82.9%
same,Q2 % Parent C5b-9+,[4],53.7%
same,effect on heme-induced C3 deposition on endothelial cells,[4],no effect
same,"effect on heme-induced C5b-9 (MAC, TCC) deposition on endothelial cells",[4],no effect
same,effect on IL-8 production,[5],no effect
